From US20260209242A1, “CAMPTOTHECIN DERIVATIVE, PHARMACEUTICAL COMPOSITION, AND PREPARATION METHOD AND USE THEREFOR” (priority 2022, published 2026)
In brackets after ≈: the same amount, converted by molar mass.

Key:
SK-BR-3 = assay: Inhibition of proliferation of cells SK-BR-3 (CelltiterGlo, 72 h); type: cell-based; details: Homo sapiens; SK-BR-3 cells, 72 h, CTG; read-out: IC50 (nM), antiproliferative activity on SK-BR-3
Experimental: • (1) Cell plating: first, tumor cells SK-BR-3 were cultured using a corresponding culture medium, trypsinized, centrifuged, resuspended for counting, adjusted to an appropriate concentration, and then plated on a 384-well plate. • (2) Co-incubation of the compounds and tumor cells: after the cells adhered to the wall, 100 nL of a diluted bioactive substance (test compound) was added to the cell culture plate using ECHO, the final concentration of DMSO in wells of the cell plate was 0.33%, and the incubation was performed in an incubator at 37° C. with 5% CO2 for 72 h. • (3) After the incubation was complete, 30 μL of a CTG reagent (CelltiterGlo kit) was added to each well. The culture was oscillated on a fast oscillator for 2 min, centrifuged at 1,000 rpm for 1 min, and kept away from light at room temperature for 30 min. The chemiluminescence signal value was read using an Envision instrument. • (4) Cell viability detection: IC50 was calculated using GraphPad Prism 8 software, and the IC50 of the compounds was obtained using the following nonlinear fitting formula (see Table 1):
[formula] • Y: inhibition rate; X: log value of compound concentration-,
[formula] • high-reading control wells: cells with addition of 100 nL DMSO; and • low-reading control wells: cell-free wells.

[1] = Kinetic solubility test in PBS 7.4; type: physicochemical
Experimental: 10 mM stock solutions of the test substances 6-2, 11-2, 17-2, Dxd, and the control drugs progesterone and diclofenac were prepared using DMSO respectively.
15 μL of 10 mM stock solution of each of the test substances was added to a corresponding position of a corresponding 96-well plate in a specified sequence. 485 μL of the PBS 7.4 was added to a corresponding vial on a sample plate. The experiment was run in duplicate. Each vial was additionally provided with a stirring rod and was plugged. Then, the sample plate was transferred in a thermostatic mixer, and oscillated at a revolving speed of 1,100 rpm at 25° C. for 2 h. 2 h later, the plug was removed, the stirring rod was attracted away with a large magnet, and then the sample was transferred from the sample plate to the filter plate. Negative pressure was generated using a vacuum pump to filter the sample. 5 μL of filtrate and 5 μL of blank DMSO were transferred to another sample plate, and then 490 μL of internal standard water (acetonitrile:water=1:1) containing the internal standard was added. Depending on peak shapes, a certain proportion of internal standard water may be used to dilute the sample diluent to obtain better peak shapes.
6 μL was transferred from the 10 mM DMSO stock solution plate to a blank plate, and was prepared into a 300 μM standard substance solution with addition of 194 μL of DMSO. 5 μL was transferred from the 300 μM standard substance solution plate to still another blank plate, and then 5 μL of blank buffer and 490 μL of the internal standard water containing the internal standard (acetonitrile:water=1:1) were added until a final concentration of the standard substance solution was 3 μM.
An injection plate was transferred on an injection tray of an autosampler to evaluate the sample by LC/MS analysis.
All calculations were performed using Microsoft Excel.
The sample filtrate was analyzed and quantified by qualitative and quantitative LC/MS of standard substance peaks at known concentrations. The calculation formula for the solubility values of the reference drugs and the test substances are as follows:
[Sample] is the compound concentration, DFSample refers to the sample dilution factor, [STD] is the standard substance concentration of the compound, AREAStd is the standard substance peak area of the compound, and AREASample is the peak area of the compound sample.

CC[C@@]1(O)C(=O)OCc2c1cc1n(c2=O)Cc2c-1nc1cc(F)c(C)c3c1c2[C@@H](NC(=O)[C@@H](O)C1CC1)CCC3 [Compound 11-2, (S)-2-cyclopropyl-N-((1S,10S)-10-ethyl-6-fluoro-10-hydroxy-5-methyl-11,14-dioxo-1,2,3,4,10,11,14,16-octahydro-13H-cyclohepta[de]pyrano[3′,4′:6,7]indolizino[1,2-b]quinolin-1-yl)-2-hydroxyacetamide]
IC50 (SK-BR-3): 2.4 nM
solubility in the PBS 7.4 compared with Dxd (in words) [1]: significantly better solubility in the PBS 7.4 than Dxd
solubility at 2 h ([1]; 25 °C, pH 7.4, aqueous buffer, kinetic from dmso stock): 34 µM (≈ 18.6 µg/mL)
